Source: patent US12649750B2, “Macrocyclic compounds, compositions, and methods of using thereof” (Sionna Therapeutics Inc., priority 2022, dated 2026)

How the values were obtained:
NBD1 = biological target: T1, NBD1 (Homo sapiens, UniProt P13569); experiment: Aggregation analysis using differential static light scattering (DSLS), thermal stability of NBD1 (ΔTagg); assay type: binding; conditions: ΔTagg versus DMSO control, NBD1 0.2 mg/ml
T1 construct: Purified recombinant NBD1 was produced using previously described methods; made in house
T1 sequence (P13569 423-646 limits assumed): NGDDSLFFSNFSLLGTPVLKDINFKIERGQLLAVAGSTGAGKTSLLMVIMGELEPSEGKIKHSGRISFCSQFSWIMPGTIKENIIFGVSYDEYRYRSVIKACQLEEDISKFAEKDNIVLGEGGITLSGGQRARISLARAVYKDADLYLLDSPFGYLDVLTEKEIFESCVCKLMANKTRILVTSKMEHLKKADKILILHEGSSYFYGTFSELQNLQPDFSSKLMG
Outline: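 Thermal aggregation of purified NBD1 was followed by static light scattering during a 1° C./min ramp to 70° C. Protein was at 0.2 mg/ml with 2 mM ATP at pH7.6. Each compound's Tagg was referenced to DMSO controls.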

CFTR = biological target: T2, CFTR (Homo sapiens, UniProt P13569, DEL508-508); experiment: TECC24 AUC fold over DMSO @10 μM, CFTR-mediated transepithelial chloride transport in CF-HBE cells; assay type: cell-based; conditions: test agent AUC divided by DMSO vehicle AUC, primary CF-HBE cells, ΔF508 homozygous donor, 48 hours incubation
T2 construct: Primary human bronchial epithelial cells from a ΔF508 homozygous CF donor; host or cells: primary human bronchial epithelial cells (CF-HBE), ΔF508 homozygous donor
T2 sequence (P13569 with tags, fused parts or gaps DEL508-508): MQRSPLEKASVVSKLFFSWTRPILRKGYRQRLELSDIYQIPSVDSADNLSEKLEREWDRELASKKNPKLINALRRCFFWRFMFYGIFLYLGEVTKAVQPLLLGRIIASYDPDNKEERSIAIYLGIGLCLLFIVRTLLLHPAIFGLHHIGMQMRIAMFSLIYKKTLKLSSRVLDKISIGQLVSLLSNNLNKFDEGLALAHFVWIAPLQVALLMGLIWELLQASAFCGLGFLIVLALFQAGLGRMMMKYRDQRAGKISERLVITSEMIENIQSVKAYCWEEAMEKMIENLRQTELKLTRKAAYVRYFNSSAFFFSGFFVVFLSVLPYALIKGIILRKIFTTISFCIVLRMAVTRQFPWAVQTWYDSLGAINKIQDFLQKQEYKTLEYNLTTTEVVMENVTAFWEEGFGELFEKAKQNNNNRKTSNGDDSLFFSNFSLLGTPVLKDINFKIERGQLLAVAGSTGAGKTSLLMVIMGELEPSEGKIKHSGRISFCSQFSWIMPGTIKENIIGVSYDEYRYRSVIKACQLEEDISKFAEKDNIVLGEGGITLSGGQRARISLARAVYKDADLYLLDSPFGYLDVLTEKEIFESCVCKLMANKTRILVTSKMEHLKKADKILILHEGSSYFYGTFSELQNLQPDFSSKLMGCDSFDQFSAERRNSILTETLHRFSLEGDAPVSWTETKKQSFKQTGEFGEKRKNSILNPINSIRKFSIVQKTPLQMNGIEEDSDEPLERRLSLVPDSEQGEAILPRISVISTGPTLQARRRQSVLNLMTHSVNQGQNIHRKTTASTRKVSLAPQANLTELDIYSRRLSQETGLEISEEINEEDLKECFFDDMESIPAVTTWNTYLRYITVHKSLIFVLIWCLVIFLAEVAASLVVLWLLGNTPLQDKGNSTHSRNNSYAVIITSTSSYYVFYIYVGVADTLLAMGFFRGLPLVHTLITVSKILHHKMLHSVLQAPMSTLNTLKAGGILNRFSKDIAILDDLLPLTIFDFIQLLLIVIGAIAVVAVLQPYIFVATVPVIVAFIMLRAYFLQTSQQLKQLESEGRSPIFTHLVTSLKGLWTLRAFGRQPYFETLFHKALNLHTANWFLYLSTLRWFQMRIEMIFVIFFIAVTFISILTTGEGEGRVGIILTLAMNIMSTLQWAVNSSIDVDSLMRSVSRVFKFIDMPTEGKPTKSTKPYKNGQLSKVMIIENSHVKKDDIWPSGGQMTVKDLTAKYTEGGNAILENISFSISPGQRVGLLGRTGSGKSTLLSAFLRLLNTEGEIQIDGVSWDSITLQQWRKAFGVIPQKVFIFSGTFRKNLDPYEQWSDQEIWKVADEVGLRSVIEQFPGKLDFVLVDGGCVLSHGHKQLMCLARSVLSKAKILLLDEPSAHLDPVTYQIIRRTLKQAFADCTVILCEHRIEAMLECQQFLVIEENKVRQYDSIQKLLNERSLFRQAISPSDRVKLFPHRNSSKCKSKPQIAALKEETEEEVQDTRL
Outline: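 Primary ΔF508-homozygous CF bronchial epithelial cells on inserts were incubated 48 h at 36.5 °C with compound in IL-13-containing medium. VT and TEER were then recorded in current-clamp mode (pH 7.4 HEPES bath) with benzamil 10 μM, forskolin 10 μM, then CFTR inhibitor-172 20 μM. The IEQ AUC between forskolin and inhibitor was divided by vehicle AUC.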

SMILES	DSLS 3D (100 μM ΔT) (NBD1)	TECC (AUC, 10 μM) (CFTR)
O=C(O)CCc1cccc(C2NC(=O)CCCS(=O)(=O)CCc3c(c(F)cc4[nH]ccc34)Oc3ccc(F)c(c3)-c3ncc2[nH]3)c1 (single isomer, unassigned) [Compound 80, 3-[3-[22,28-difluoro-8,12,12-trioxo-24-oxa-12lambda6-thia-3,7,19,30-tetrazapentacyclo[23.3.1.12,5.015,23.016,20]triaconta-1(29),2,4,15,17,20,22,25,27-nonaen-6-yl]phenyl]propanoic acid]	B (a value above 5 °C and less than or equal to 10 °C is marked “B”)	A (a TECC value less than 12 is marked “A”)
O=C1CCCS(=O)(=O)CCc2c(c(F)cc3[nH]ccc23)Oc2ccc(F)c(c2)-c2ncc([nH]2)C(c2ccccc2)N1 (single isomer, unassigned) [Compound 81, 22,28-difluoro-12,12-dioxo-6-phenyl-24-oxa-12lambda6-thia-3,7,19,30 tetrazapentacyclo[23.3.1.12,5.015,23.016,20]triaconta-1(29),2,4,15,17,20,22,25,27-nonaen-8-one]	A (an ΔTagg value less than or equal to 5 °C is marked “A”)	A (a TECC value less than 12 is marked “A”)
O=C(O)CCc1cccc(C2NC(=O)CCCS(=O)(=O)CCc3c(c(F)cc4[nH]ccc34)Oc3ccc(F)c(c3)-c3ncc2[nH]3)c1 (single isomer, unassigned) [Compound 82, 3-[3-[22,28-difluoro-8,12,12-trioxo-24-oxa-12lambda6-thia-3,7,19,30-tetrazapentacyclo [23.3.1.12,5.015,23.016,20]-triaconta-1(29),2,4,15,17,20,22,25,27-nonaen-6-yl]phenyl]propanoic acid]	C (a value greater than 10 °C and less than or equal to 25 °C is marked “C”)	A (a TECC value less than 12 is marked “A”)
O=C1CCCS(=O)(=O)CCc2c(c(F)cc3[nH]ccc23)Oc2ccc(F)c(c2)-c2ncc([nH]2)C(c2ccccc2)N1 (single isomer, unassigned) [Compound 83, 22,28-difluoro-12,12-dioxo-6-phenyl-24-oxa-12lambda6-thia-3,7,19,30-tetrazapentacyclo [23.3.1.12,5.015,23.016,20]-triaconta-1(29),2,4,15,17,20,22,25,27-nonaen-8-one]	B (a value above 5 °C and less than or equal to 10 °C is marked “B”)	A (a TECC value less than 12 is marked “A”)
Cc1cn2nc1-c1cc(ccc1F)Oc1c(F)cc3[nH]ccc3c1CCS(=O)(=O)CC(C)(C)COCC2c1cccc(CCC(=O)O)c1 (single isomer, unassigned) [Compound 84B, 3-[3-(22,28-difluoro-3,10,10-trimethyl-12,12-dioxo-8,24-dioxa-12lambda6-thia-5,19,30-triazapentacyclo[23.3.1.12,5.015,23.016,20]triaconta-1(29),2(30),3,15,17,20,22,25,27-nonaen-6-yl)phenyl]propanoic acid]	A (an ΔTagg value less than or equal to 5 °C is marked “A”)	A (a TECC value less than 12 is marked “A”)
Cc1cnn2c1-c1cc(ccc1F)Oc1c(F)cc3[nH]ccc3c1CCS(=O)(=O)CC(C)(C)COCC2c1cccc(CCC(=O)O)c1 (single isomer, unassigned) [Compound 85, 3-[3-(23,29-difluoro-3,11,11-trimethyl-13,13-dioxo-9,25-dioxa-13λ6-thia-5,6,20-triazapentacyclo[24.3.1.02,6.016,24.017,21]triaconta-1(30),2,4,16,18,21,23,26,28-nonaen-7-yl)phenyl]propanoic Acid]	A (an ΔTagg value less than or equal to 5 °C is marked “A”)	A (a TECC value less than 12 is marked “A”)
CC1(C)CS(=O)(=O)CCc2c(c(F)cc3[nH]ccc23)Oc2ccc(F)c(c2)-c2ccn(n2)C(c2cccc(CCC(=O)O)c2)CCO1 (single isomer, unassigned) [Compound 87A, 3-[3-(22,28-difluoro-10,10-dimethyl-12,12-dioxo-9,24-dioxa-12lambda6-thia-5,19,30-triazapentacyclo[23.3.1.12,5.015,23.016,20]-triaconta-1(29),2(30),3,15,17,20,22,25,27-nonaen-6-yl)phenyl]propanoic acid]	B (a value above 5 °C and less than or equal to 10 °C is marked “B”)	A (a TECC value less than 12 is marked “A”)
CC1(C)CS(=O)(=O)CCc2c(c(F)cc3[nH]ccc23)Oc2ccc(F)c(c2)-c2ccn(n2)C(c2cccc(CCC(=O)O)c2)CCO1 (single isomer, unassigned) [Compound 87B, 3-[3-(22,28-difluoro-10,10-dimethyl-12,12-dioxo-9,24-dioxa-12lambda6-thia-5,19,30-triazapentacyclo[23.3.1.12,5.015,23.016,20]-triaconta-1(29),2(30),3,15,17,20,22,25,27-nonaen-6-yl)phenyl]propanoic acid]	C (a value greater than 10 °C and less than or equal to 25 °C is marked “C”)	A (a TECC value less than 12 is marked “A”)
CCn1nc2nc1-c1cc(ccc1F)Oc1c(F)cc3[nH]ccc3c1CCS(=O)(=O)CC(C)(C)CCCC2(C)c1cccc(CCC(=O)O)c1 (single isomer, unassigned) [Compound 91A, 3-[3-(3-ethyl-22,28-difluoro-6,10,10-trimethyl-12,12-dioxo-24-oxa-12lambda6-thia-3,4,19,30-tetrazapentacyclo[23.3.1.12,5.015,23.016,20]triaconta-1(29),2(30),4,15,17,20,22,25,27-nonaen-6-yl)phenyl]propanoic Acid]	C (a value greater than 10 °C and less than or equal to 25 °C is marked “C”)	A (a TECC value less than 12 is marked “A”)
CCn1nc2nc1-c1cc(ccc1F)Oc1c(F)cc3[nH]ccc3c1CCS(=O)(=O)CC(C)(C)CCCC2(C)c1cccc(CCC(=O)O)c1 (single isomer, unassigned) [Compound 91B, 3-[3-(3-ethyl-22,28-difluoro-6,10,10-trimethyl-12,12-dioxo-24-oxa-12lambda6-thia-3,4,19,30-tetrazapentacyclo[23.3.1.12,5.015,23.016,20]triaconta-1(29),2(30),4,15,17,20,22,25,27-nonaen-6-yl)phenyl]propanoic Acid]	A (an ΔTagg value less than or equal to 5 °C is marked “A”)	A (a TECC value less than 12 is marked “A”)
Cn1nc2nc1-c1cccc(c1)Oc1c(F)cc3[nH]ccc3c1CCS(=O)(=O)CC(C)(C)CCCC2(C)c1cccc(CCC(=O)O)c1 (single isomer, unassigned) [Compound 95A, 3-[3-(22-fluoro-3,6,10,10-tetramethyl-12,12-dioxo-24-oxa-12λ6-thia-3,4,19,30-tetrazapentacyclo[23.3.1.12,5.015,23.016,20]triaconta-1(29),2(30),4,15,17,20,22,25,27-nonaen-6-yl)phenyl]propanoic Acid]	A (an ΔTagg value less than or equal to 5 °C is marked “A”)	A (a TECC value less than 12 is marked “A”)
Cn1nc2nc1-c1cccc(c1)Oc1c(F)cc3[nH]ccc3c1CCS(=O)(=O)CC(C)(C)CCCC2(C)c1cccc(CCC(=O)O)c1 (single isomer, unassigned) [Compound 95B, 3-[3-(22-fluoro-3,6,10,10-tetramethyl-12,12-dioxo-24-oxa-12λ6-thia-3,4,19,30-tetrazapentacyclo[23.3.1.12,5.015,23.016,20]triaconta-1(29),2(30),4,15,17,20,22,25,27-nonaen-6-yl)phenyl]propanoic Acid]	C (a value greater than 10 °C and less than or equal to 25 °C is marked “C”)	A (a TECC value less than 12 is marked “A”)
[2H]C([2H])([2H])C1(c2cccc(CCC(=O)O)c2)CCCC(C)(C)CS(=O)(=O)CCc2c(c(F)cc3[nH]ccc23)Oc2ccc(F)c(c2)-c2nc1nn2C (single isomer, unassigned) [Compound 96A, 3-[3-[22,28-difluoro-3,10,10-trimethyl-12,12-dioxo-6-(trideuteriomethyl)-24-oxa-12lambda6-thia-3,4,19,30-tetrazapentacyclo-[23.3.1.12,5.015,23.016,20]triaconta-1(29),2(30),4,15,17,20,22,25,27-nonaen-6-yl]phenyl]propanoic Acid]	C (a value greater than 10 °C and less than or equal to 25 °C is marked “C”)	A (a TECC value less than 12 is marked “A”)
[2H]C([2H])([2H])C1(c2cccc(CCC(=O)O)c2)CCCC(C)(C)CS(=O)(=O)CCc2c(c(F)cc3[nH]ccc23)Oc2ccc(F)c(c2)-c2nc1nn2C (single isomer, unassigned) [Compound 96B, 3-[3-[22,28-difluoro-3,10,10-trimethyl-12,12-dioxo-6-(trideuteriomethyl)-24-oxa-12lambda6-thia-3,4,19,30-tetrazapentacyclo-[23.3.1.12,5.015,23.016,20]triaconta-1(29),2(30),4,15,17,20,22,25,27-nonaen-6-yl]phenyl]propanoic Acid]	A (an ΔTagg value less than or equal to 5 °C is marked “A”)	A (a TECC value less than 12 is marked “A”)
